Results taken from PubChem BioAssay (NCI).
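96-well plates; 48 h exposure; 5 concentrations. Endpoints by linear interpolation between flanking doses. Not reached: highest tested concentration assigned. GI50 is the concentration that inhibits growth by half. At the TGI there is no net growth.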

Key:
Assay in all cases: growth of human tumour cells (NCI), 48 h; in the data active = GI50 below about 0.43 µM; inactive = the rest
HOP-92 NSCLC = system: HOP-92 NSCLC
T-47D breast = system: T-47D breast
NCI-H522 lung = system: NCI-H522 lung
SN12C renal = system: SN12C renal
SK-MEL-5 melanoma = system: SK-MEL-5 melanoma
786-0 renal = system: 786-0 renal
NCI/ADR-RES ovarian = system: NCI/ADR-RES ovarian
BT-549 breast = system: BT-549 breast
NCI-H23 lung = system: NCI-H23 lung
RXF 393 renal = system: RXF 393 renal
SW-620 colon = system: SW-620 colon
OVCAR-4 ovarian = system: OVCAR-4 ovarian
EKVX NSCLC = system: EKVX NSCLC
CAKI-1 renal = system: CAKI-1 renal
HCC-2998 colon = system: HCC-2998 colon
MALME-3M melanoma = system: MALME-3M melanoma
UACC-62 melanoma = system: UACC-62 melanoma
HS 578T breast = system: HS 578T breast
PC-3 prostate = system: PC-3 prostate
SNB-75 CNS = system: SNB-75 CNS
HOP-62 NSCLC = system: HOP-62 NSCLC
U251 CNS = system: U251 CNS
HCT-15 colon = system: HCT-15 colon
MDA-MB-231 breast = system: MDA-MB-231 breast
MCF7 breast = system: MCF7 breast
UACC-257 melanoma = system: UACC-257 melanoma
CCRF-CEM leukemia = system: CCRF-CEM leukemia
OVCAR-3 ovarian = system: OVCAR-3 ovarian
SF-539 CNS = system: SF-539 CNS
MDA-MB-435 = system: MDA-MB-435
ACHN renal = system: ACHN renal
IGROV1 ovarian = system: IGROV1 ovarian
UO-31 renal = system: UO-31 renal
SNB-19 CNS = system: SNB-19 CNS
KM12 colon = system: KM12 colon
A549 NSCLC = system: A549 NSCLC
OVCAR-5 ovarian = system: OVCAR-5 ovarian
NCI-H460 lung = system: NCI-H460 lung
A498 renal = system: A498 renal
M14 melanoma = system: M14 melanoma
RPMI-8226 leukemia = system: RPMI-8226 leukemia
SF-268 CNS = system: SF-268 CNS
HCT-116 colon = system: HCT-116 colon
COLO 205 colon = system: COLO 205 colon
SK-MEL-2 melanoma = system: SK-MEL-2 melanoma
HT29 colon = system: HT29 colon
SK-MEL-28 melanoma = system: SK-MEL-28 melanoma
DU-145 prostate = system: DU-145 prostate
TK-10 renal = system: TK-10 renal
SF-295 CNS = system: SF-295 CNS
MOLT-4 leukemia = system: MOLT-4 leukemia
NCI-H226 lung = system: NCI-H226 lung
SK-OV-3 ovarian = system: SK-OV-3 ovarian
OVCAR-8 ovarian = system: OVCAR-8 ovarian
HL-60(TB) leukemia = system: HL-60(TB) leukemia
K-562 leukemia = system: K-562 leukemia
LOX IMVI melanoma = system: LOX IMVI melanoma

O=c1c2ccccc2nnn1-c1n[nH]c2ccccc12
> 100 µM: TGI (HOP-92 NSCLC) | TGI (T-47D breast) | TGI (NCI-H522 lung) | TGI (SN12C renal) | TGI (SK-MEL-5 melanoma) | TGI (786-0 renal) | TGI (NCI/ADR-RES ovarian) | TGI (BT-549 breast) | TGI (NCI-H23 lung) | TGI (RXF 393 renal) | TGI (SW-620 colon) | TGI (OVCAR-4 ovarian) | TGI (EKVX NSCLC) | TGI (CAKI-1 renal) | TGI (HCC-2998 colon) | TGI (MALME-3M melanoma) | TGI (UACC-62 melanoma) | TGI (HS 578T breast) | TGI (PC-3 prostate) | TGI (SNB-75 CNS) | TGI (HOP-62 NSCLC) | TGI (U251 CNS) | TGI (HCT-15 colon) | TGI (MDA-MB-231 breast) | TGI (MCF7 breast) | TGI (UACC-257 melanoma) | TGI (CCRF-CEM leukemia) | TGI (OVCAR-3 ovarian) | TGI (SF-539 CNS) | TGI (MDA-MB-435) | TGI (ACHN renal) | TGI (IGROV1 ovarian) | TGI (UO-31 renal) | TGI (SNB-19 CNS) | TGI (KM12 colon) | TGI (A549 NSCLC) | TGI (OVCAR-5 ovarian) | TGI (NCI-H460 lung) | TGI (A498 renal) | TGI (M14 melanoma) | TGI (RPMI-8226 leukemia) | TGI (SF-268 CNS) | TGI (HCT-116 colon) | TGI (COLO 205 colon) | TGI (SK-MEL-2 melanoma) | TGI (HT29 colon) | TGI (SK-MEL-28 melanoma) | TGI (DU-145 prostate) | TGI (TK-10 renal) | TGI (SF-295 CNS)

COc1ccc(-n2c(SCc3cc(OC)c(OC)c(OC)c3)nc3ccc(C)cc3c2=O)cc1
inactive: GI50 (MOLT-4 leukemia) 5.19 µM | GI50 (HOP-92 NSCLC) 1.75 µM | GI50 (T-47D breast) 5.46 µM | GI50 (NCI-H522 lung) 4.41 µM | GI50 (SN12C renal) 52.7 µM | GI50 (SK-MEL-5 melanoma) 3.58 µM | GI50 (786-0 renal) > 100 µM | GI50 (NCI/ADR-RES ovarian) 3.71 µM | GI50 (BT-549 breast) 7.37 µM | GI50 (NCI-H23 lung) 32.7 µM | GI50 (RXF 393 renal) 70.4 µM | GI50 (SW-620 colon) 4.35 µM | GI50 (OVCAR-4 ovarian) 9.9 µM | GI50 (CAKI-1 renal) 4.53 µM | GI50 (HCC-2998 colon) > 100 µM | GI50 (MALME-3M melanoma) 59.8 µM | GI50 (NCI-H226 lung) > 100 µM | GI50 (UACC-62 melanoma) 6.82 µM | GI50 (HS 578T breast) 6.06 µM | GI50 (PC-3 prostate) 2.83 µM | GI50 (SNB-75 CNS) 2.76 µM | GI50 (HOP-62 NSCLC) 29.1 µM | GI50 (U251 CNS) 7.87 µM | GI50 (HCT-15 colon) 5.24 µM | GI50 (MDA-MB-231 breast) 5.73 µM | GI50 (SK-OV-3 ovarian) 9.74 µM | GI50 (OVCAR-8 ovarian) > 100 µM | GI50 (MCF7 breast) 3.71 µM | GI50 (UACC-257 melanoma) 64.4 µM | GI50 (CCRF-CEM leukemia) 1.58 µM | GI50 (OVCAR-3 ovarian) 4.87 µM | GI50 (SF-539 CNS) 14.8 µM | GI50 (MDA-MB-435) 1.88 µM | GI50 (ACHN renal) 42.9 µM | GI50 (IGROV1 ovarian) > 100 µM | GI50 (UO-31 renal) 5.56 µM | GI50 (SNB-19 CNS) > 100 µM | GI50 (HL-60(TB) leukemia) 3.74 µM | GI50 (KM12 colon) 4.57 µM | GI50 (A549 NSCLC) 4.75 µM | GI50 (K-562 leukemia) 3.89 µM | GI50 (LOX IMVI melanoma) 17.2 µM | GI50 (OVCAR-5 ovarian) > 100 µM | GI50 (NCI-H460 lung) 3.83 µM | GI50 (A498 renal) 1.95 µM | GI50 (M14 melanoma) 4.26 µM | GI50 (RPMI-8226 leukemia) 2.55 µM | GI50 (SF-268 CNS) 55.2 µM | GI50 (HCT-116 colon) 3.38 µM | GI50 (COLO 205 colon) 5.24 µM | GI50 (SK-MEL-2 melanoma) 8.73 µM | GI50 (HT29 colon) 4.3 µM | GI50 (SK-MEL-28 melanoma) 25.9 µM | GI50 (DU-145 prostate) > 100 µM | GI50 (SF-295 CNS) 4.36 µM
50.9 µM: TGI (RPMI-8226 leukemia)
> 100 µM: TGI (MOLT-4 leukemia) | TGI (HOP-92 NSCLC) | TGI (T-47D breast) | TGI (NCI-H522 lung) | TGI (SN12C renal) | TGI (SK-MEL-5 melanoma) | TGI (786-0 renal) | TGI (NCI/ADR-RES ovarian) | TGI (BT-549 breast) | TGI (NCI-H23 lung) | TGI (RXF 393 renal) | TGI (SW-620 colon) | TGI (OVCAR-4 ovarian) | TGI (CAKI-1 renal) | TGI (HCC-2998 colon) | TGI (MALME-3M melanoma) | TGI (NCI-H226 lung) | TGI (UACC-62 melanoma) | TGI (HS 578T breast) | TGI (PC-3 prostate) | TGI (SNB-75 CNS) | TGI (HOP-62 NSCLC) | TGI (U251 CNS) | TGI (HCT-15 colon) | TGI (MDA-MB-231 breast) | TGI (SK-OV-3 ovarian) | TGI (OVCAR-8 ovarian) | TGI (MCF7 breast) | TGI (UACC-257 melanoma) | TGI (CCRF-CEM leukemia) | TGI (OVCAR-3 ovarian) | TGI (SF-539 CNS) | TGI (ACHN renal) | TGI (IGROV1 ovarian) | TGI (UO-31 renal) | TGI (SNB-19 CNS) | TGI (HL-60(TB) leukemia) | TGI (KM12 colon) | TGI (A549 NSCLC) | TGI (K-562 leukemia) | TGI (LOX IMVI melanoma) | TGI (OVCAR-5 ovarian) | TGI (NCI-H460 lung) | TGI (M14 melanoma) | TGI (SF-268 CNS) | TGI (HCT-116 colon) | TGI (COLO 205 colon) | TGI (SK-MEL-2 melanoma) | TGI (HT29 colon) | TGI (SK-MEL-28 melanoma) | TGI (DU-145 prostate) | TGI (SF-295 CNS)
16.9 µM: TGI (A498 renal)
4.72 µM: TGI (MDA-MB-435)
